From the supplement of paper PMC10307832

Tests used:
Assay in all cases: relative viability (nuclei count vs DMSO), 5 days (fraction); higher = more cells survive
IMD-0354 + Pemetrexed = compound: O=C(Nc1cc(C(F)(F)F)cc(C(F)(F)F)c1)c1cc(Cl)ccc1O [IMD-0354] + Nc1nc2[nH]cc(CCc3ccc(C(=O)N[C@@H](CCC(=O)O)C(=O)O)cc3)c2c(=O)[nH]1 [Pemetrexed] (partner 0.2 µM)
Method in brief: (§1)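 A single step with final 0.05% Triton X-100, 1% formaldehyde and 1 ug/ml Hoechst fixed the cells and stained nuclei 5 days after treatment. Lung cancer cell lines in 1536-well plates had been treated by pin tool the day after seeding with one drug alone or a fixed anchor-drug dose plus five library-drug doses (not always all listed) in √10 steps, and nuclei were counted on 4× images. Relative viability is the ratio of nuclei in treated wells to nuclei in vehicle wells, taken as the median of duplicate plates.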

CX-5461 + Dasatinib = compound: Cc1cnc(CNC(=O)c2c(=O)c3ccc(N4CCCN(C)CC4)nc3n3c2sc2ccccc23)cn1 [CX-5461] + Cc1nc(Nc2ncc(C(=O)Nc3c(C)cccc3Cl)s2)cc(N2CCN(CCO)CC2)n1 [Dasatinib] (partner 0.075 µM)
Method in brief: as §1

IMD-0354 + Tozasertib = compound: O=C(Nc1cc(C(F)(F)F)cc(C(F)(F)F)c1)c1cc(Cl)ccc1O [IMD-0354] + Cc1cc(Nc2cc(N3CCN(C)CC3)nc(Sc3ccc(NC(=O)C4CC4)cc3)n2)n[nH]1 [Tozasertib] (partner 0.1 µM)
Method in brief: as §1

IMD-0354 + Bortezomib = compound: O=C(Nc1cc(C(F)(F)F)cc(C(F)(F)F)c1)c1cc(Cl)ccc1O [IMD-0354] + CC(C)C[C@H](NC(=O)[C@H](Cc1ccccc1)NC(=O)c1cnccn1)B(O)O [Bortezomib] (partner 0.002 µM)
Method in brief: as §1

| Cell Line | relative viability (IMD-0354 + Pemetrexed; first compound 0.04 µM) | relative viability (IMD-0354 + Pemetrexed; first compound 0.1265 µM) | relative viability (IMD-0354 + Pemetrexed; first compound 0.4 µM) | relative viability (IMD-0354 + Pemetrexed; first compound 1.265 µM) | relative viability (IMD-0354 + Pemetrexed; first compound 4 µM) | relative viability (CX-5461 + Dasatinib; first compound 0.01 µM) | relative viability (CX-5461 + Dasatinib; first compound 0.03162 µM) | relative viability (CX-5461 + Dasatinib; first compound 0.1 µM) | relative viability (CX-5461 + Dasatinib; first compound 0.3162 µM) | relative viability (CX-5461 + Dasatinib; first compound 1 µM) | relative viability (IMD-0354 + Tozasertib; first compound 0.04 µM) | relative viability (IMD-0354 + Tozasertib; first compound 0.1265 µM) | relative viability (IMD-0354 + Tozasertib; first compound 0.4 µM) | relative viability (IMD-0354 + Tozasertib; first compound 1.265 µM) | relative viability (IMD-0354 + Tozasertib; first compound 4 µM) | relative viability (IMD-0354 + Bortezomib; first compound 0.04 µM) | relative viability (IMD-0354 + Bortezomib; first compound 0.1265 µM) | relative viability (IMD-0354 + Bortezomib; first compound 0.4 µM) | relative viability (IMD-0354 + Bortezomib; first compound 1.265 µM) | relative viability (IMD-0354 + Bortezomib; first compound 4 µM) |
| --- | --- | --- | --- | --- | --- | --- | --- | --- | --- | --- | --- | --- | --- | --- | --- | --- | --- | --- | --- | --- |
| HCC-78 | 0.972 | 0.885 | 0.637 | 0.96 | 0.902 | 0.431 | 0.381 | 0.406 | 0.421 | 0.322 | 0.467 | 0.598 | 0.3 | 0.368 | 0.231 | 0.419 | 0.438 | 0.443 | 0.561 | 0.382 |
| HCC-366 | 0.18 | 0.181 | 0.0918 | 0.0649 | 0.0246 | 0.678 | 0.597 | 0.627 | 0.68 | 0.106 | 0.122 | 0.0913 | 0.168 | 0.0335 | 0.031 | 1.2 | 0.885 | 0.281 | 0.099 | 0.0336 |
| HCC-827 | 0.26 | 0.267 | 0.243 | 0.19 | 0.163 | 0.346 | 0.277 | 0.349 | 0.35 | 0.298 | 0.437 | 0.458 | 0.353 | 0.353 | 0.182 | 1.03 | 1.07 | 0.825 | 0.462 | 0.347 |
| HOP-62 | 0.348 | 0.308 | 0.268 | 0.141 | 0.0739 | 0.724 | 0.661 | 0.704 | 0.675 | 0.489 | 0.46 | 0.374 | 0.263 | 0.228 | 0.108 | 0.954 | 0.836 | 0.661 | 0.227 | 0.0871 |
| LC-2-ad | 0.29 | 0.268 | 0.276 | 0.189 | 0.145 | 0.59 | 0.713 | 0.546 | 0.406 | 0.27 | 0.484 | 0.528 | 0.377 | 0.243 | 0.257 | 1.02 | 0.991 | 0.385 | 0.129 | 0.119 |
| LCLC-97TM1 | 0.202 | 0.162 | 0.102 | 0.0974 | 0.0756 | 0.755 | 0.873 | 0.791 |  | 0.701 | 0.2 | 0.223 | 0.171 | 0.18 | 0.116 | 0.928 | 0.501 | 0.706 | 0.0804 | 0.242 |
| LCLC-103H | 0.518 | 0.491 | 0.446 | 0.317 | 0.266 | 0.527 | 0.583 | 0.384 | 0.609 | 0.53 | 0.597 | 0.509 | 0.425 | 0.449 | 0.222 | 1.14 | 1.02 | 0.939 | 0.847 | 0.252 |
| LOU-NH91 | 0.359 | 0.472 | 0.25 | 0.206 | 0.304 | 0.677 | 0.511 | 0.602 |  | 0.532 | 0.774 | 0.626 | 0.523 | 0.184 | 0.174 | 0.5 | 0.498 | 0.492 | 0.303 | 0.319 |
| LU99A | 0.194 | 0.201 | 0.143 | 0.188 | 0.149 | 0.759 | 0.499 | 0.439 | 0.341 | 0.172 | 0.326 | 0.254 | 0.267 | 0.244 | 0.218 | 0.878 | 1.19 | 0.625 | 0.281 | 0.186 |
| LXF-289 | 0.898 | 0.884 | 0.868 | 0.26 | 0.129 | 0.257 | 0.204 | 0.202 | 0.103 | 0.154 | 0.229 | 0.235 | 0.154 | 0.0929 | 0.053 | 1.03 | 0.833 | 0.757 | 0.291 | 0.131 |
| NCI-H23 | 0.78 | 0.693 | 0.324 | 0.18 | 0.235 | 0.75 | 0.892 | 0.834 | 1.03 | 0.5 | 0.338 | 0.376 | 0.275 | 0.157 | 0.186 | 1.09 | 0.906 | 0.542 | 0.208 | 0.219 |
| NCI-H322M | 0.673 | 0.65 | 0.543 | 0.332 | 0.422 | 0.249 | 0.243 | 0.267 | 0.219 | 0.267 | 0.469 | 0.471 | 0.387 | 0.289 | 0.359 | 1.28 | 1.35 | 1.12 | 1.43 | 0.264 |
| NCI-H441 | 0.255 | 0.251 | 0.289 | 0.177 | 0.147 | 0.593 | 0.486 | 0.747 | 0.419 | 0.364 | 0.79 | 0.667 | 0.397 | 0.295 | 0.24 |  | 0.848 | 0.218 | 0.15 | 0.0844 |
| NCI-H460 | 0.0638 | 0.0692 | 0.0923 | 0.0741 | 0.0289 | 0.554 | 0.435 | 0.263 | 0.516 | 0.0464 | 0.485 | 0.35 | 0.443 | 0.127 | 0.0269 | 0.893 | 1.15 | 0.18 | 0.0575 | 0.0265 |
| NCI-H520 | 0.668 | 0.838 | 0.392 | 0.149 | 0.139 | 0.164 | 0.165 | 0.199 | 0.166 | 0.203 | 0.441 | 0.379 | 0.385 | 0.347 | 0.229 | 0.681 | 0.579 | 0.389 | 0.186 | 0.208 |
| NCI-H596 | 0.546 | 0.526 | 0.344 | 0.461 | 0.396 | 0.613 | 0.639 | 0.596 | 0.623 | 0.473 | 1.02 | 0.946 | 0.599 | 0.955 | 0.503 | 0.931 | 1.15 | 0.846 | 1.08 | 0.629 |
